In the supplement of paper PMC5908809:

Assays:
[1] = tested on: normal NK cells expanded with K562-aAPC; assay: percent inhibition of viability; higher = more inhibition; settings: 72 h, IL-2 2.5 ng/mL
Description: (§1)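 Drug sensitivity and resistance testing on K562-aAPC-expanded normal NK cells: 5 concentrations (10-fold steps over a 10,000-fold range), 72 h at 37 °C, viability by CellTiter-Glo normalised to DMSO and benzethonium chloride controls; DSS from the fitted curve.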

[2] = tested on: DERL-7 (IL-2 2.5 ng/mL); assay: as above; settings: 72 h
[3] = tested on: IMC-1 (IL-2 20 ng/mL); assay: as above; settings: 72 h
[4] = tested on: KAI3 (IL-2 2.5 ng/mL); assay: as above; settings: 72 h
[5] = tested on: KHYG-1 (IL-2 2.5 ng/mL); assay: as above; settings: 72 h
[6] = tested on: NK-92 (IL-2 2.5 ng/mL); assay: as above; settings: 72 h
[7] = tested on: NK-YS (IL-2 2.5 ng/mL); assay: as above; settings: 72 h
[8] = tested on: NKL (IL-2 2.5 ng/mL); assay: as above; settings: 72 h
[9] = tested on: SNK-6 (IL-2 2.5 ng/mL); assay: as above; settings: 72 h
[10] = tested on: YT (IL-2 2.5 ng/mL); assay: as above; settings: 72 h
[11] = tested on: normal primary NK cells, pool 1 (3 donors) (IL-2 2.5 ng/mL); assay: as above; settings: 72 h
[12] = tested on: normal primary NK cells, pool 1 (3 donors), resting (IL-2 0 ng/mL); assay: as above; settings: 72 h
[13] = tested on: normal primary NK cells, pool 2 (3 donors) (IL-2 2.5 ng/mL); assay: as above; settings: 72 h
[14] = tested on: normal primary NK cells, pool 3 (3 donors) (IL-2 2.5 ng/mL); assay: as above; settings: 72 h
[15] = tested on: normal NK cells expanded with K562-aAPC; assay: drug sensitivity score (DSS) (DSS units); higher = more sensitive; extreme values may be limits of the assay; settings: 72 h; IL-2 2.5 ng/mL
Description: as §1

[16] = tested on: DERL-7 (IL-2 2.5 ng/mL); assay: as above; settings: 72 h
[17] = tested on: IMC-1 (IL-2 20 ng/mL); assay: as above; settings: 72 h
[18] = tested on: KAI3 (IL-2 2.5 ng/mL); assay: as above; settings: 72 h
[19] = tested on: KHYG-1 (IL-2 2.5 ng/mL); assay: as above; settings: 72 h
[20] = tested on: NK-92 (IL-2 2.5 ng/mL); assay: as above; settings: 72 h
[21] = tested on: NK-YS (IL-2 2.5 ng/mL); assay: as above; settings: 72 h
[22] = tested on: NKL (IL-2 2.5 ng/mL); assay: as above; settings: 72 h
[23] = tested on: SNK-6 (IL-2 2.5 ng/mL); assay: as above; settings: 72 h
[24] = tested on: YT (IL-2 2.5 ng/mL); assay: as above; settings: 72 h
[25] = tested on: normal primary NK cells, pool 1 (3 donors) (IL-2 2.5 ng/mL); assay: as above; settings: 72 h
[26] = tested on: normal primary NK cells, pool 1 (3 donors), resting (IL-2 0 ng/mL); assay: as above; settings: 72 h
[27] = tested on: normal primary NK cells, pool 2 (3 donors) (IL-2 2.5 ng/mL); assay: as above; settings: 72 h
[28] = tested on: normal primary NK cells, pool 3 (3 donors) (IL-2 2.5 ng/mL); assay: as above; settings: 72 h

C[C@@H]1COC(Nc2ccc3ncnc(Nc4ccc(OCc5nccs5)c(Cl)c4)c3c2)=N1 [Varlitinib] (max concentration tested 10000 nM)
percent inhibition of viability [%]
Settings | 1 nM | 10 nM | 100 nM | 1000 nM | 10000 nM
[1] | -1.48 | 1.48 | 0.78 | 6.23 | 6.06
[2] | 1.37 | -3.89 | -4.97 | -5.43 | -2.66
[3] | -2.91 | 6.3 | 4.06 | 14.6 | 34
[4] | 0.52 | 0.69 | -2.99 | 5.18 | 9.75
[5] | 0.82 | -0.44 | 4.79 | 10.6 | 19.4
[6] | -5.14 | -6.85 | 0.79 | 4.69 | 35.3
[7] | 2.18 | -3.81 | 2.34 | 4.33 | 12.3
[8] | 1.14 | 7.53 | 8.83 | 12.6 | 17.6
[9] | 7.32 | 23.1 | 18.9 | 25.6 | 29.6
[10] | 3.61 | 0.68 | 4.78 | 8.48 | 12.2
[11] | -1.41 | -12.3 | 1.76 | -7.07 | 4.85
[12] | -8.46 | -19.4 | -14.8 | -23.5 | -3.47
[13] | -7.11 | -4.04 | 6.91 | 1.02 | 9.32
[14] | -15.9 | -6.58 | -0.23 | -16.5 | 3.13

Settings | drug sensitivity score
[15] | 0
[16] | 0
[17] | 2.92
[18] | 0
[19] | 1.18
[20] | 2.45
[21] | 0.1
[22] | 1.5
[23] | 8.77
[24] | 0.09
[25] | 0
[26] | 0
[27] | 0
[28] | 0

O=C(NC1CCNCC1)c1n[nH]cc1NC(=O)c1c(Cl)cccc1Cl [AT7519] (max concentration tested 10000 nM)
percent inhibition of viability [%]
Settings | 1 nM | 10 nM | 100 nM | 1000 nM | 10000 nM
[1] | -3.7 | 0.1 | -4.47 | 99.1 | 100
[2] | 3.68 | -3.37 | -6.6 | 99.2 | 100
[3] | 5.46 | 1.26 | -0.14 | 96.8 | 96.4
[4] | 1.05 | -1.69 | 4.7 | 86.2 | 94
[5] | -2.18 | -4.7 | 1.67 | 61.9 | 96.3
[6] | -10.5 | -1.16 | -2.58 | 32.2 | 90.7
[7] | -2.23 | -4.04 | 9.45 | 96.6 | 93.7
[8] | 1.32 | 5.88 | 13.8 | 102 | 97.5
[9] | 6.43 | -7.68 | 0.7 | 50.8 | 48.4
[10] | 0.46 | -3.64 | 6.82 | 79.9 | 97
[11] | -13.5 | -8.03 | 6.78 | 96.9 | 97.9
[12] | -42.2 | -37.4 | -20.6 | 90.1 | 89.6
[13] | -5.51 | -3.1 | 0.18 | 95.2 | 95.8
[14] | -13.9 | -11.2 | -5.85 | 94.7 | 98.8

Settings | drug sensitivity score
[15] | 17.5
[16] | 17.3
[17] | 17.4
[18] | 16.3
[19] | 12.7
[20] | 9.5
[21] | 18.9
[22] | 20.3
[23] | 9.33
[24] | 15.6
[25] | 18.6
[26] | 15.1
[27] | 17.2
[28] | 16.8

Oc1c2ccccc2c2c3c(cccc13)N=N2 (max concentration tested 100000 nM)
percent inhibition of viability [%]
Settings | 10 nM | 100 nM | 1000 nM | 10000 nM | 100000 nM
[1] | -5.86 | -5.73 | -0.03 | 16.2 | 46.2
[2] | 0.02 | 10.7 | 21.6 | 53.3 | 72.7
[3] | -9.76 | -5.66 | -7.38 | 9.45 | 15.4
[4] | -1.06 | -0.37 | -1.44 | 36 | 77.2
[5] | -9.58 | -4.25 | -1.77 | 41.2 | 79.2
[6] | 5.13 | 5.87 | 15.3 | 43.2 | 71.4
[7] | -9.38 | -3.05 | -7.51 | 20.3 | 61
[8] | -5.72 | 1.11 | 17.1 | 43.4 | 71.7
[9] | -6.71 | -15.7 | -11.4 | 25.4 | 66.8
[10] | -6.35 | -2.65 | -2.78 | 17.4 | 42.7
[11] | 1.28 | 6.88 | 11.3 | 22.6 | 57.5
[12] | 10.6 | 13.4 | 3.37 | 16 | 14.5
[13] | -8.33 | -0.93 | 6.2 | 28.3 | 40.2
[14] | -1.96 | 3 | 10.6 | 5.71 | 43.7

Settings | drug sensitivity score
[15] | 4.7
[16] | 12.8
[17] | 0.95
[18] | 8.9
[19] | 9.5
[20] | 10.2
[21] | 6.25
[22] | 10.3
[23] | 7.17
[24] | 4.53
[25] | 5.75
[26] | 0
[27] | 5.61
[28] | 3.2
